In brackets after ≈: the same amount, converted by molar mass.
What was measured:
[1] = system: carbapenemase producing K. pneumoniae; experiment: MIC by broth micro-dilution (CLSI), carbapenemase producing K. pneumoniae; assay type: cell-based, Klebsiella pneumoniae; details: Klebsiella pneumoniae, ATCCBAA1705, KPC-2 K. pneumoniae ATCC BAA-1705; read-out: MIC
[2] = system: carbapenem sensitive Pseudomonas aeruginosa; experiment: MIC by broth micro-dilution (CLSI), carbapenem sensitive P. aeruginosa; assay type: cell-based; details: Pseudomonas aeruginosa, ATCC27853, Meropenem susceptible P. aeruginosa ATCC27853; read-out: MIC
[3] = system: extended spectrum β lactamase (ESBL) SHV18 producing Klebsiella pneumoniae; experiment: MIC by broth micro-dilution (CLSI), ESBL SHV18 producing K. pneumoniae; assay type: cell-based; details: Klebsiella pneumoniae, ATCC700603, 22 h, ESBL +ve (SHV-18) K. pneumoniae ATCC700603; read-out: MIC
[4] = system: methicillin-sensitive Staphylococcus aureus; experiment: MIC by broth micro-dilution (CLSI), methicillin-sensitive S. aureus; assay type: cell-based; details: Staphylococcus aureus, ATCC 29213 / MSSA, MSSA S. aureus ATCC29213; read-out: MIC
[5] = system: carbapenem sensitive Escherichia coli; experiment: MIC by broth micro-dilution (CLSI), carbapenem sensitive E. coli; assay type: cell-based; details: Escherichia coli, ATCC25922, ESBL −ve E. coli ATCC25922; read-out: MIC

| Structure (SMILES) | MIC [1] | MIC [2] | MIC [3] | MIC [4] | MIC [5] |
| --- | --- | --- | --- | --- | --- |
| C[C@@H](NC(=O)C(=O)N(C)C)[C@H]1C(=O)N2C(C(=O)O)=C(S[C@@H]3CN[C@H](C(=O)N(C)C)C3)[C@H](C)[C@H]12 [Example 66] | 4 to 8 µg/mL (≈ 8.31 to 16.6 µM) | > 128 µg/mL | 8 µg/mL (≈ 16.6 µM) | 8 µg/mL (≈ 16.6 µM) | 2 µg/mL (≈ 4.15 µM) |
| CNCCN(CC#N)C(=O)[C@@H]1C[C@H](SC2=C(C(=O)O)N3C(=O)[C@H]([C@@H](C)NC(=O)C(F)F)[C@H]3[C@H]2C)CN1 [Example 171] | 128 µg/mL (≈ 242 µM) | > 128 µg/mL | 128 µg/mL (≈ 242 µM) | 2 µg/mL (≈ 3.78 µM) | 4 µg/mL (≈ 7.57 µM) |
| C[C@@H](NC(=O)C(F)F)[C@H]1C(=O)N2C(C(=O)O)=C(S[C@@H]3CN[C@H](CNC(=O)N(C)C)C3)[C@H](C)[C@H]12 [Example 89] | 4 µg/mL (≈ 8.17 µM) | 128 µg/mL (≈ 261 µM) | 8 µg/mL (≈ 16.3 µM) | 0.5 µg/mL (≈ 1.02 µM) | 0.5 µg/mL (≈ 1.02 µM) |
| CCOC(=O)CN[C@H](C)[C@H]1C(=O)N2C(C(=O)O)=C(S[C@@H]3CN[C@H](C(=O)N(C)C)C3)[C@H](C)[C@H]12 [Example 98] | 32 µg/mL (≈ 68.3 µM) | > 128 µg/mL | 32 µg/mL (≈ 68.3 µM) | 32 µg/mL (≈ 68.3 µM) | 8 µg/mL (≈ 17.1 µM) |
| C[C@@H](NS(=O)(=O)c1ccccc1)[C@H]1C(=O)N2C(C(=O)O)=C(S[C@@H]3CN[C@H](C(=O)N(C)C)C3)[C@H](C)[C@H]12 [Example 11] | 32 µg/mL (≈ 61.2 µM) | > 128 µg/mL | 64 µg/mL (≈ 122 µM) | 8 µg/mL (≈ 15.3 µM) | 4 µg/mL (≈ 7.65 µM) |
| CNCC(=O)N[C@H](C)[C@H]1C(=O)N2C(C(=O)O)=C(S[C@@H]3CN[C@H](C(=O)N(C)C)C3)[C@H](C)[C@H]12 [Example 112] | 4 µg/mL (≈ 8.82 µM) | 8 µg/mL (≈ 17.6 µM) | 4 µg/mL (≈ 8.82 µM) | 64 µg/mL (≈ 141 µM) | 2 µg/mL (≈ 4.41 µM) |
| CNCC(=O)N[C@H](C)[C@H]1C(=O)N2C(C(=O)O)=C(S[C@@H]3CN[C@H](C(=O)N4CC(N)C4)C3)[C@H](C)[C@H]12 [Example 189] | 8 µg/mL (≈ 16.6 µM) | 16 µg/mL (≈ 33.3 µM) | 32 µg/mL (≈ 66.6 µM) | > 128 µg/mL | 4 µg/mL (≈ 8.32 µM) |
| C[C@@H](NC(=O)CN)[C@H]1C(=O)N2C(C(=O)O)=C(S[C@@H]3CN[C@H](C(=O)N(C)C)C3)[C@H](C)[C@H]12 [Example 44] | 8 µg/mL (≈ 18.2 µM) | 16 µg/mL (≈ 36.4 µM) | 4 µg/mL (≈ 9.1 µM) | 32 µg/mL (≈ 72.8 µM) | 4 µg/mL (≈ 9.1 µM) |
| C[C@H](NS(C)(=O)=O)C(=O)N[C@H](C)[C@H]1C(=O)N2C(C(=O)O)=C(S[C@@H]3CN[C@H](C(=O)N(C)C)C3)[C@H](C)[C@H]12 [Example 51] | 32 µg/mL (≈ 60.2 µM) | > 128 µg/mL | 32 µg/mL (≈ 60.2 µM) | 8 µg/mL (≈ 15 µM) | 4 µg/mL (≈ 7.52 µM) |
| C[C@@H](NC(=O)C(F)F)[C@H]1C(=O)N2C(C(=O)O)=C(S[C@@H]3CN[C@H](C(=O)N4CCN(C(=N)N)CC4)C3)[C@H](C)[C@H]12 [Example 157] | 4 µg/mL (≈ 7.36 µM) | 4 µg/mL (≈ 7.36 µM) | 8 µg/mL (≈ 14.7 µM) | 2 µg/mL (≈ 3.68 µM) | 1 µg/mL (≈ 1.84 µM) |
| CCOC(=O)C(=O)N[C@H](C)[C@H]1C(=O)N2C(C(=O)O)=C(S[C@@H]3CN[C@H](C(=O)N(C)C)C3)[C@H](C)[C@H]12 [Example 28] | 4 to 8 µg/mL (≈ 8.29 to 16.6 µM) | 4 to 8 µg/mL (≈ 8.29 to 16.6 µM) | 2 µg/mL (≈ 4.14 µM) | 8 µg/mL (≈ 16.6 µM) | 2 µg/mL (≈ 4.14 µM) |
| C[C@@H](NC(=O)C(F)F)[C@H]1C(=O)N2C(C(=O)O)=C(SCc3cccnc3)[C@H](C)[C@H]12 [Example 96] | 32 µg/mL (≈ 77.8 µM) | > 128 µg/mL | 64 µg/mL (≈ 156 µM) | 1 µg/mL (≈ 2.43 µM) | 4 µg/mL (≈ 9.72 µM) |
| CNC[C@@H]1C[C@H](N)CN1C(=O)[C@@H]1C[C@H](SC2=C(C(=O)O)N3C(=O)[C@H]([C@@H](C)NC(=O)C(F)F)[C@H]3[C@H]2C)CN1 [Example 185] | 16 µg/mL (≈ 29.4 µM) | 64 µg/mL (≈ 118 µM) | 64 µg/mL (≈ 118 µM) | 2 µg/mL (≈ 3.67 µM) | 2 µg/mL (≈ 3.67 µM) |
| C[C@@H](NC(=O)C(F)F)[C@H]1C(=O)N2C(C(=O)O)=C(S[C@@H]3CN[C@H](C(=O)N4CCN(C)CC4)C3)[C@H](C)[C@H]12 [Example 43] | 8 µg/mL (≈ 15.5 µM) | 64 µg/mL (≈ 124 µM) | 4 µg/mL (≈ 7.76 µM) | 2 µg/mL (≈ 3.88 µM) | 1 µg/mL (≈ 1.94 µM) |
